Data from patent publication US20230404985A1, “METHODS OF TREATING TUMORS AND CANCERS HAVING DYSREGULATED WNT SIGNALING PATHWAYS” (ICAHN SCHOOL OF MEDICINE AT MOUNT SINAI, priority 2020, published 2023).

How the values were obtained:
[1] = Dose escalation studies in mice; format: in vivo, mouse
Description: Mice were randomized into treatment groups, and daily oral dosing began one week after mice arrived at ISMMS. Body weight was recorded daily, and animals were monitored for any signs of sickness throughout the treatment period.
To rationalize a treatment regimen for WNTinib and understand potential toxicity, in vivo dose escalation was performed in three mouse strains (FIG. 8A, FIGS. 12A-12B). Mice were dosed daily for two weeks, and body weight loss was used as a proxy for systemic toxicity.

[2] = tested on: H3K27me3 at promoters of Wnt and pluripotency genes; assay: ChIP-sequencing of H3K27me3 in MYC-CTNNB1 organoids; format: cell-based, mouse; settings: WNTinib 1 μM, 24 hours
Description: Importantly, this was not seen in the MYC-Tp53 model organoids (FIG. 10C).

[3] = tested on: MYC-Tp53 tumor organoid allografts; assay: MYC-Tp53 tumor organoid allografts; format: in vivo, C57BL/6J mice; settings: 30 mg/kg daily oral gavage
Description: 300,000 cells per allograft were prepared in 8 mg/mL Matrigel. 6-8-week-old C57BL/6J mice were shaved the day prior to injection. A 26^5/8-gauge needle was used to implant organoids into the flank in 100 μL Matrigel. Tumor allografts were measured daily with calipers, and upon an average volumetric measurement of 100 mm^3, animals were randomized and drug dosing was started. Drugs were dosed daily at 30 mg/kg via oral gavage. Tumor allografts were also measured daily.
MYC-CTNNB1 tumor organoids were engrafted into C57BL/6 mice and treatment was started when tumor volume reached 100 mm^3.

[4] = tested on: pT367 EZH2 and pT71 ATF2; settings: WNTinib 1 μM, sorafenib 10 μM; for temporal inhibition of pT367 EZH2 and pT71 ATF2: MYC-CTNNB1 organoids, SB202190 10 μM, 48 hours time course; for modulation of pT367 EZH2 in the four tumor organoid models: 48 hours
Description: Tumor organoids were grown in 24 well plates and were collected in Cell Recovery Solution (Corning) after drug treatment. Tumor organoids were left to rotate at 4° C. for one hour in order to dissolve the Matrigel. Tumor organoids were spun down at 300 g at 4° C. for 5 minutes. Pellets were lysed in 2× Laemmli buffer (+4% 2-mercaptoethanol) by heating at 95° C. for 10 minutes followed by 5 seconds of sonication. SDS-PAGE was run using standard procedures.

[5] = tested on: MYC-lucOS; CTNNB1 mutant HCC; assay: Hydrodynamic tail vein model of CTNNB1-mutated HCC, survival; format: in vivo, C57/BL6 mice; settings: 5 days on/2 days off
Description: A sterile 0.9% NaCl solution/plasmid mix was prepared containing DNA—12 μg of pT3-EF1α-MYC-IRES-luciferase-OS (MYC-lucOS), 10 μg of pT3-N90-CTNNB1 (CTNNB1), and a 4:1 ratio of transposon to SB13 transposase-encoding plasmid. A volume equivalent to 10% of mouse body weight was injected through the tail vein using a 3 mL syringe with a 26-gauge needle (11). Animals were monitored for 6 days, and bioluminescent signal from tumors was visualized using an IVIS Spectrum system. Anesthetized mice were imaged 5 minutes after intraperitoneal injection of 100 mg/kg D-luciferin (Thermo Fisher Scientific). IVIS Living Image software was used to quantify luciferase signal, which was normalized by subtracting background signal. […] Oral drug treatment began in randomized arms seven days after plasmid injection. Kinase inhibitors were prepared as stated above, and WNTinib and sorafenib were dosed at concentrations of 20 mg/kg and 30 mg/kg, respectively. Drugs were administered following a 5 days on/2 days off treatment schedule. Body weights were recorded daily, and animals were monitored for signs of sickness, tumor palpability, and death. Sick animals were sacrificed according to the ISMMS IACUC guidelines.
Given that tumors with dysregulated WNT signaling are associated with tumor immune exclusion and overall are refractory to treatment with immune checkpoint inhibitors, the efficacy of WNTinib was tested in combination with immunotherapy. First, a hydrodynamic tail vein mouse model of MYC-lucOS, CTNNB1 mutant HCC, which is known to be refractory to treatment with anti-PD-1 was used (Ruiz de Galarreta et al., “O-Catenin Activation Promotes Immune Escape and Resistance to Anti-PD-1 Therapy in Hepatocellular Carcinoma,” Cancer Discov. 9(8):1124-1141 (2019), which is hereby incorporated by reference in its entirety). C57/BL6 mice were randomized into treatment groups using IVIS imaging to quantify tumor size based on luminescence signal intensity. After randomization, kinase inhibitors were dissolved in 25% cremaphor:ethanol in water and administered orally (30 mg/kg sorafenib, 20 mg/kg WNTinib) beginning 7 days after injection following a 5 days on/2 days off dosing schedule. Immunotherapy (anti-PD-1) was administered via intraperitoneal injection on days 11, 13, and 15 after injection at […].

[6] = tested on: kinome; assay: Kinome profiling (KINOMEscan); format: binding
Description: WNTinib's inhibitory profile was performed using Eurofins' (DiscoverX) KINOMVEscan platform. Inhibition trees were visualized using KinMap (Eid et al., “KinMap: A Web-Based Tool for Interactive Navigation through Human Kinome Data,” BMC 10 Bioinformatics 18(1):16 (2017), which is hereby incorporated by reference in its entirety). For regorafenib and sorafenib, publicly available data was used to visualize inhibition trees (Uitdehaag et al., “Comparison of the Cancer Gene Targeting and Biochemical Selectivities of All Targeted Kinase Inhibitors Approved for Clinical Use,” Plos ONE 9(3):e92146 (2014) and Davis et al., “Comprehensive Analysis of Kinase Inhibitor Selectivity,” Nat. Biotechnol. 29(11):1046-1051 (2011), which are hereby incorporated by reference in their entirety).

[7] = tested on: Advanced-stage HCC; settings: patients; cited from earlier work
[8] = dosed daily via oral gavage for two weeks, three mouse strains

SMILES	tolerability of exposures ([1]; dose escalation and 20 mg/kg PK (FIG. 8A, 8B))	body weight loss [1, 8]	signs of sickness [1, 8]	H3K27me3 at promoters of genes of Wnt and pluripotency pathways [2]	activity in MYC-Tp53 allografts [3]	temporal inhibition of pT367 EZH2 and pT71 ATF2 [4]	modulation of pT367 EZH2 in the four tumor organoid models [4]	remaining animals alive, time post final dosing ([5]; WNTinib 20 mg/kg)	share of treatment arm that succumbed to death ([5]; WNTinib 20 mg/kg) [%]	survival benefit ([5]; WNTinib 20 mg/kg)	kinome selectivity (selectivity scores) ([6]; compared with sorafenib and regorafenib)	kinase targets maintained ([6]; in vitro kinase assays)	median survival [7]	survival benefit ([5]; sorafenib 30 mg/kg) [days]
CNC(=O)c1cc(Oc2ccc(NC(=O)Nc3ccc(C(F)(F)C(F)(F)F)cc3)c(F)c2)ccn1 [WNTinib, 4-(3-fluoro-4-(3-(4-(perfluoroethyl)phenyl)ureido)phenoxy)-N-methylpicolinamide]	well-tolerated	weight loss did occur in a dose-dependent manner	No mice showed signs of sickness	upregulated the tri-methylation of lysine 27 on histone H3 (H3K27me3)	inactive	delayed, but durable inhibition up to 48 hours	inhibited by WNTinib in the MYC-CTNNB1 model	over 300 days	40	significant survival benefit	generally less promiscuous than the parental compounds	maintains several of the proposed key targets of sorafenib and regorafenib, including c-KIT, PDGFRα/β, VEGFR1/2, RET and FLT3		
CNC(=O)c1cc(Oc2ccc(NC(=O)Nc3ccc(Cl)c(C(F)(F)F)c3)cc2)ccn1 [sorafenib, reference compound]					better activity	transient inhibition	induced pT367 across several organoid models						11-14 months	7.5
